Results on one compound are retold here after patent publication US20110034466A1, “NOVEL FIVE-MEMBERED RING COMPOUND” (priority 2008, published 2011).

As usually defined, the inhibition is how much of the control response was suppressed.

One experiment relates to rat lung membrane SMBS. Kind of experiment: Receptor-binding assessment test using rat lung membranes ([125I]-iodocyanopindolol ligand binding assay). The conditions noted are these: 1 μM test compound; ratio of inhibiting specific binding of [125I]-iodocyanopindolol to rat lung membrane SMBS. The method, then: Receptor-Binding Assessment Test of Compounds Using Rat Lung Membranes
The assessment test was carried out according to the method of Sugasawa, T. et al., J. Biol. Chem., 272, 21244-21252 (1997).
Preparation of Rat Lung Membranes
Lung taken out from SD male rat (7-week old under test, Charles River Laboratories Japan, Inc.) was removed trachea and blood vessels to shred and washed with iced tris-saline buffer (10 mM tris hydrochloric acid-154 mM sodium chloride, pH7.4). The resultant was homogenized by Hiscotron with ice-cold tris-saline buffer containing a homogenization buffer (1 mM ethylenediaminetetraacetic acid (EDTA), 1 mM 4-(2-aminoethyl)benzenesulfonyl fluoride (AEBSF), 5 μg/ml aprotinin, 5 μg/ml leupeptine) (maximum rate: 1 minute). The supernatant after low-speed centrifugation (1500×g, 20 minutes, 4° C.) was ultracentrifuged (100000×g, 20 minutes, 4° C.), and the pellet was suspended in tris-saline buffer to store at −80° C. The protein concentrations were determined by Bio-Rad Protein Assay Kit using bovine serum albumin (BSA) as a standard.
To each well in protein-nonabsorptive round-bottom 96-well assay plate (commercially available from Iwaki Glass Co., Ltd.) were added tris-saline buffer (200 μl) containing 1 nM [^125I]-iodocyanopindolol (commercially available from Amersham plc), 10 μM serotonine, 20 μm dl-propranolol, 10 μM phentolamine, 1.1 mM ascorbic acid and 100 μg lung membrane, and the mixture was pipetted to combine and then incubated at 37° C. for 30 minutes. The test compounds were dissolved in 100% dimethyl sulfoxide solution, and thereto was added 2 μl (final DMSO concentration: 1%). In order to calculate nonspecific binding amounts, to the mixture was added L-threo-3-(3,4-dihydroxyphenyl)-N-[3-(4-fluorophenyl)propyl]serine pyrrolidine amide at 100 μM of the final concentration as an alternative to the test compounds. During this time, 100 μl of 0.3% polyethyleneimine (PEI)/tris-saline buffer was added to MultiScreen plate (96-well B glass fiber, Millipore Cat. No. MAFB NOB10), and incubated for over 30 minutes. The resultant was filtered with aspiration (aspiration by the addition of 200 μl iced tris-saline buffer) to wash, and the reaction solutions on 96-well assay plate were filtered with aspiration to wash four times on MultiScreen plate. B glass fiber filter paper at the bottom of MultiScreen plate was punched out, and γ-ray doses of [^125I]-iodocyanopindolol trapped on the filter paper were determined as binding amounts. The binding amounts in the presence of DMSO (final concentration: 1%) were total binding amounts, and the binding amounts in the presence of 100 μM L-threo-3-(3,4-dihydroxyphenyl)-N-[3-(4-fluorophenyl)propyl]serine pyrrolidine amide were nonspecific binding amounts. The values subtracted the nonspecific binding amounts from the total binding amounts were the specific binding amounts. The binding activity of a compound was calculated according to the following formula, which was shown in the ratio of inhibiting the specific binding of [^125I]-iodocyanopindolol to rat lung membrane SMBS by the test compound.

Experiment [1] has as its system Corticosterone generation. Kind of experiment: Assessment test of steroid hormone synthesis inhibition (Corticosterone generation in rat adrenal gland cells). The conditions noted are these: 10 μM test article, rat adrenal cells with cAMP, 2 hours, read-out: Steroid Synthesis Inhibition Rate (%) (10 μM). The experiment is classed as cell-based. An excerpt:
Assessment Test of Steroid Hormone Synthesis Inhibition
• Cell Strainer (BD Falcon®) • Cell Titer-Glo® (Promega) • Collagenase from Clostridium histolyticum (Sigma-Aldrich) • Corticosterone EIA kit (Cayman) • Dimethylsulfoxide (referred to as DMSO hereinafter) (nacalai tesque) • D-MEM (GIBCO) • DNase I (Invitrogen) • Fetal Bovine Serums (referred to as FBS hereinafter) (Bioflud) • Multiple well plates for adhesive cell culture, 96 wells (IWAKI) • N^6,2′-O-Dibutyryladenosine 3′,5′-cyclic monophosphate sodium salt (referred to as cAMP hereinafter) (Sigma) • Penicillin Streptomycin Mixed Solution (nacalai tesque)
Control examples 1 to 4: Control example 1 was Example 350 of Patent Document 2. Control examples 2 to 4 were synthesized according to Patent Document 2.
Adrenal glands were taken out from rats, and removed excess connective tissues, adiposes and membranes in D-MEM. The adrenal glands were transferred to polytubes, and quickly segmentalized with scissors. Thereto was added D-MEM containing 1 mg/mL collagenase and 0.25 μL DNase 1, and then the mixture was shaken at 37° C. for 10 minutes in 80 times/minute. Then, the mixture was pipetted by 1 mL truncated pipette tip, and shaken again under the same condition. After 10 minutes, the mixture was pipetted again by 1 mL pipette tip, and the cell suspension was filtered through metal mesh. The filtrate was centrifuged at 4° C. for 5 minutes in 500 g. The supernatant was removed, and thereto was added a mixed solution of 0.16 M NH4Cl and 0.17 M Tris-HCl in 3 mL. The mixture was let stand on ice for 5 minutes, and then centrifuged under the same condition. Then, the supernatant was removed and then thereto was added D-MEM. The cell suspension was prepared and centrifuged under the same condition. Again, the supernatant was removed and then thereto was added D-MEM to give a cell suspension. The cell suspension was filtered by Cell Strainer (BD Falcon®). The filtrate was centrifuged under the same condition. After the completion of the centrifugation, the supernatant was removed, and thereto was added D-MEM containing 1% Penicillin Streptomycin Mixed Solution and 10% FBS. The mixture was seeded in Multiple well plate for adhesive cell culture, 96 wells (IWAKI) in 10000 cells/well, and incubated at 37° C. overnight in CO2 incubator.
Test article concentrations were prepared in DMSO to 2000 μM, and D-MEM containing 20 μM test article in D-MEM was prepared.
Cell-seeded plate was incubated overnight, and then the medium was removed and thereto was added D-MEM containing 20 μM test article in 50 μL/well. Then, to the mixture was promptly added D-MEM containing 20 μM cAMP in 50 μL/well so that the final concentration of the test article was 10 μM. After the addition of 2 types of D-MEM, the mixture was incubated at 37° C. for 2 hours in CO2 incubator. After 2 hours, the supernatant (50 μL) of the medium was collected. For cells, the cell toxicity of the test article was assessed according to a conventional method using Cell Titer-Glo® (Promega). For the collected supernatant, the Corticosterone concentration in the supernatant was determined according to a conventional method using Corticosterone EIA kit (Cayman).
The inhibition rate of 10 μM test article to Corticosterone generation was calculated according to the following formula confirming that the cell toxicity by the test article was not recognized.

The test system of experiment [2] is Guinea pig late asthma model. Kind of experiment: Guinea pig late asthma model (ovalbumin sensitized, respiratory function sRaw/TV). The experiment is classed as in vivo. Conditions: 3 mg/kg orally one hour before antigen challenge. The method, then:
Assessment of Compounds in Guinea Pig Late Asthma Model
The assessment was carried out using a compound obtained in Example 52.
Hartley male guinea pigs (commercially available from Japan SLC, Inc.) were pre-bred about 1 week after arrival, and then exposed by inhalation to 2% (w/v) ovalbumin (OA) saline in a plastic box (4 guniea pigs/box) for 5 minutes using a ultrasonic nebulizer (OMRON NE-U12, condition: maximum nebulizing amounts, maximum air volume), and sensitized (day 0). The same operation was carried out on day 7. On day 14 or 15, each guinea pig was administered 2% OA by inhalation for 5 minutes to initiate a response (challenge). […]
A determination and analysis of respiratory function were carried out according to the method of Penny A. Hutson et al. Am Rev Respir Dis 1988 137, 548-557. The respiratory function was determined before the antigen challenge (before drug administration) and 5 minutes and 1, 2, 3, 4, 5, 6, 7 and 8 hours after the antigen challenge, and wave profiles were imported using MacLab Chart v3.4 (AD Instruments) and analyzed later. […] The sRaw/TV values subtracting the former values were plotted against measured times, and each area under the curve (AUC4-8 hr) of each animal was calculated to compare each other in the range of 4 to 8 hours after the antigen challenge. […]

On to `CNC(=O)NCCn1c(-c2ccc(C(=O)N3CCOCC3)cc2)cs/c1=N\c1cccc(F)c1` [Example 52, N-{2-[(2Z)-2-[(3-Fluorophenyl)imino]-4-[4-(morpholin-4-ylcarbonyl)phenyl]-1,3-thiazol-3(2H)-yl]ethyl}-N′-methylurea], for which, in the experiment on rat lung membrane SMBS, the “Binding Activity (%) (1 μM)” value came to 59%. The inhibition at 10 µM in experiment [1] was found to be 0%. Further, the “AUC4-8 hr ((sRaw/TV) · h)” value in experiment [2] (4 to 8 hours after antigen challenge) is listed as 0.427 (sRaw/TV) · h. Moreover, in experiment [2] (AUC4-8 hr versus control group, p<0.01 Dunnett's test), the “Improvement Rate (%)” value is 54%.
